According to US20230048888A1, “USE OF TRIAZOLOTRIAZINE DERIVATIVE IN TREATMENT OF DISEASES” (ZHEJIANG VIMGREEN PHARMACEUTICALS, LTD., priority 2019, published 2023):

How the values were obtained:
adenosine receptors A2A = molecular target: T1, adenosine receptors A2A (Homo sapiens, UniProt P29274); experiment: TR-FRET-based cAMP accumulation assay in hADORA2A-HEK293 cells; assay type: cell-based; conditions: NECA at EC80, hADORA2A-HEK293, read-out: A2AR activity (IC50)
T1 construct: expressed in transfected cells; host or cells: HEK293 (hADORA2A-HEK293)
T1 sequence (P29274 whole entry): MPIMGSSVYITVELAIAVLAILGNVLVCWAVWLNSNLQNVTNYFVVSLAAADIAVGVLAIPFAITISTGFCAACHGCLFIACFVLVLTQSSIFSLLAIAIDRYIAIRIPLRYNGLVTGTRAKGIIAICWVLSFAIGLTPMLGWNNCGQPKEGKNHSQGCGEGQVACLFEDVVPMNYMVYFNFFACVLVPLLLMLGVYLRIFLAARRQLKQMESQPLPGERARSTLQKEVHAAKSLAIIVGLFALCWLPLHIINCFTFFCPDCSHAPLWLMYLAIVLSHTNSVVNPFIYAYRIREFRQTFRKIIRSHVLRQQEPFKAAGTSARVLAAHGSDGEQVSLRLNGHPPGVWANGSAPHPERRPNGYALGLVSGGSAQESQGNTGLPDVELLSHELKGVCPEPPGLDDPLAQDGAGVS
Procedure: The inhibitory effects of the test compounds on the adenosine receptors A2A were evaluated by TR-FRET-based cAMP accumulation assay. The method included, in HEK293 cells (hADORA2A-HEK293) expressing A2AR, the production of cAMP stimulated by NECA and the inhibitory effect of A2A receptor antagonists on cAMP. All cells were cultured in a complete medium at 37° C. in the presence of 5% CO2. After being digested with trypsin, the cells were collected by centrifugation at 200 g for 5 minutes. The cells were resuspended in a fresh complete medium, and then the cell viability was counted by a trypan blue exclusion method. […] The cells were diluted with Hank's buffer solution containing HEPES (5 mM), BSA stabilizer (0.1%) and Rolipram (10 μM), then added to a 384-well white non-transparent plate (cells/well, 10 μl/well), and incubated with the test compound at an appropriate concentration (11 concentrations) for 20 minutes at room temperature. Then, the A2A receptor agonist NECA (final concentration=EC80, which was determined in the same experiment performed earlier) was added to the sample, and the sample was incubated again at 37° C. for 30 minutes.
An inhibition rate (%) was calculated according to the following formula, and an IC50 value was calculated from a concentration-inhibition (%) curve after log conversion.
A curve corresponding to the dose was fitted by using XLfit software and the IC50 was determined.

adenosine receptor A1 = molecular target: T2, adenosine receptor A1 (Homo sapiens, UniProt P30542); experiment: cAMP experiment on Gi-coupled adenosine receptor A1 (CHO); assay type: cell-based; conditions: cAMP accumulation, NECA EC80 + forskolin; read-out: IC50 (nM) CHO cells (ADORA1)
T2 construct: host or cells: CHO
T2 sequence (P30542 1-326): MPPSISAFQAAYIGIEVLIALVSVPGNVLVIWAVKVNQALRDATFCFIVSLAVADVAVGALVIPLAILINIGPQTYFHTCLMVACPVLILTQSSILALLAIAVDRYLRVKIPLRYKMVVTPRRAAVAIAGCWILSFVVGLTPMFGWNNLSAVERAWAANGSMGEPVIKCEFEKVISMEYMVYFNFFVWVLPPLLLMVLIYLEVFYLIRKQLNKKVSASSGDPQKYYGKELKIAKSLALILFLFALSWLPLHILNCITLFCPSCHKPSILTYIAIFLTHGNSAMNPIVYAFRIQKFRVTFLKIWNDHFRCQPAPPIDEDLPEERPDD
Procedure: In this experiment, a CHO cell strain stably expressing the adenosine receptor Al was taken as a study object (PerkinElmer, ES-010-C) for the experiment. […] A solution system for cell inoculation was 10 μL of cAMP experimental buffer. […] Likewise, 10 mM test compound was also subjected to 3-fold gradient dilution in 100% DMSO. 1 mM forskolin (Sigma, F3917) was prepared with 100% DMSO. The gradient-diluted reference compound and test compound and the 1 mM forskolin were added to a 384-well compound plate (Labcyte, PP-0200). 10 nL of the 1 mM forskolin per well and 10 nL of the gradient-diluted reference agonist NECA per well were transferred to a test plate containing cells by using Echo (Labcyte, 550), and the test plate was incubated for 30 minutes at 37° C. 5 μL of Eu-cAMP tracer working solution and 5 μL of ULight-anti-cAMP working solution (PerkinElmer, TRF0263) were added to the test plate per well, and the test plate was incubated for 30 minutes at 25° C. […] 1000×EC80 NECA was prepared with 100% DMSO. 10 nL of the reference inhibitor DPCPX gradient-diluted per well and 10 nL of the test compound gradient-diluted per well per well were transferred to a test plate containing the cells, and the test plate was incubated for 20 minutes at 25° C. 10 nL of 1000×EC80 NECA per well and 10 nL of 1 mM forskolin per well were transferred to the test plate The test plate was incubated for 30 minutes at 37° C. 5 μL of Eu-cAMP tracer working solution and 5 μL of ULight-anti-cAMP working solution were added to the test plate per well, and the test plate was incubated for 30 minutes at 25° C. The fluorescence signal ratio of each well in the test plate was read, and the IC50 value of the compound was calculated by using the output data of the reference inhibitor and test compound and the concentration of the compound.

Structure (SMILES) | IC50 (adenosine receptors A2A) [nM] | IC50 (adenosine receptor A1) [nM]
COCCNc1ccc(CCNc2nc(N)n3nc(-c4ccco4)nc3n2)cc1 [Compound 27, 2-(furan-2-yl)-N5-(4-((2-methoxyethyl)amino)phenethyl)-[1,2,4]triazolo[1,5-a][1,3,5]triazine-5,7-diamine] | 10.6 | 679
Nc1nc(NCCc2ccc(NC3COC3)cc2)nc2nc(-c3ccco3)nn12 [Compound 22, 2-(furan-2-yl)-N5-(4-(oxetan-3-ylamino)phenethyl)-[1,2,4]triazolo[1,5-a][1,3,5]triazine-5,7-diamine] | 7.07 | 928
CCn1c(=O)c2c(nc(/C=C/c3ccc(OC)c(OC)c3)n2C)n(CC)c1=O [Istradefylline, reference compound] | – | 1200
Cn1nnc(-c2ccc(CCNc3nc(N)n4nc(-c5ccco5)nc4n3)cc2)n1 [Compound 40, N5-(4-(2-methyl-2H-tetrazol-5-yl)phenethyl)-2-(furan-2-yl)-[1,2,4]triazolo[1,5-a][1,3,5]triazine-5,7-diamine] | 9.66 | 388
